Experimental data as given in ChEMBL document CHEMBL3124783, “Study of the structural and dynamic effects in the FimH adhesin upon α-d-heptyl mannose binding” (J Med Chem, 2014).
The source made the active and inactive calls. No cut-off for these calls is given here.

Columns and labels:
[1] = Binding affinity to Escherichia coli FimH lectin domain
Escherichia coli J96 = test: Selectivity ratio of Kd for Escherichia coli J96 FimH lectin domain Y48A mutant to Kd for Escherichia coli J96 wild type FimH lectin domain
[2] = molecular target: Type 1 fimbrin D-mannose specific adhesin (Escherichia coli K-12) (UniProt P08191); test: Binding affinity to Escherichia coli J96 FimH lectin domain expressed in Escherichia coli C43 (DE3) by SAXS analysis
[3] = molecular target: Type 1 fimbrin D-mannose specific adhesin (Escherichia coli K-12) (UniProt P08191); test: Binding affinity to Escherichia coli J96 FimH lectin domain expressed in Escherichia coli C43 (DE3) by NMR analysis
[4] = Binding affinity to Escherichia coli J96 FimH lectin domain Y48A mutant expressed in Escherichia coli C43 (DE3) by direct ITC analysis
[5] = molecular target: Type 1 fimbrin D-mannose specific adhesin (Escherichia coli K-12, UniProt P08191); test: Binding affinity to Escherichia coli J96 wild type FimH lectin domain expressed in Escherichia coli C43 (DE3) by direct ITC analysis
Chain of Type 1 fimbrin D-mannose specific adhesin (P08191 whole entry, the tested form may be a part): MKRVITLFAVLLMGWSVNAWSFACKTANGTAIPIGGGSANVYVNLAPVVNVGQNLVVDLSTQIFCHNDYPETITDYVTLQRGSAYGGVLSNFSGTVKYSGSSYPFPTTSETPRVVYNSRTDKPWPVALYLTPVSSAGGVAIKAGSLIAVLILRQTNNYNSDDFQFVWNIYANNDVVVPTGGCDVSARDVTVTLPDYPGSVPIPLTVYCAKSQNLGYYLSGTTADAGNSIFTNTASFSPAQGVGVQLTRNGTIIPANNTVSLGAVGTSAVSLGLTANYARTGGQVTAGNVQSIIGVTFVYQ

Chain of Type 1 fimbrin D-mannose specific adhesin (Escherichia coli K-12) (P08191 whole entry, the tested form may be a part): as above

CCCCCCCO[C@H]1O[C@H](CO)[C@@H](O)[C@H](O)[C@@H]1O
Kd [1]: 7 nM | Selectivity ratio (Escherichia coli J96): 5 | Activity [2]: Active | Activity [3]: Active | Kd [4]: 94.3 nM | Kd [5]: 17.1 nM
